Our source for the Kd values is patent publication US20250186541A1, “DLL3 TARGETING PEPTIDES AND CONSTRUCTS THEREOF” (MARIANA ONCOLOGY INC., priority 2023, published 2025).

Structures are written as SMILES. Bridge positions count the residues as written; N and C are the ends. Square brackets hold non-standard residues; d marks the D form. Peptide text beside a SMILES is read from it. * marks the point of attachment. DOTA = O=C(O)CN1CCN(CC(=O)O)CCN(CC(=O)*)CCN(CC(=O)O)CC1; Lys(Me3) = C[N+](C)(C)CCCC[C@H](N)C(=O)O; 1Nal = N[C@@H](Cc1cccc2ccccc12)C(=O)O; NMeQ = CN[C@@H](CCC(N)=O)C(=O)O; Chg = N[C@H](C(=O)O)C1CCCCC1; Tle = CC(C)(C)[C@H](N)C(=O)O; αMeP = C[C@@]1(C(=O)O)CCCN1; Nle = CCCC[C@H](N)C(=O)O; Ahx = NCCCCCC(=O)O Where only a bound is given, the exact number is not on record here.

This experiment has as its target T1, human DLL3 (Homo sapiens, UniProt Q9NYJ7).
T1 construct: biotin (biotinylated)
T1 sequence (Q9NYJ7 27-618): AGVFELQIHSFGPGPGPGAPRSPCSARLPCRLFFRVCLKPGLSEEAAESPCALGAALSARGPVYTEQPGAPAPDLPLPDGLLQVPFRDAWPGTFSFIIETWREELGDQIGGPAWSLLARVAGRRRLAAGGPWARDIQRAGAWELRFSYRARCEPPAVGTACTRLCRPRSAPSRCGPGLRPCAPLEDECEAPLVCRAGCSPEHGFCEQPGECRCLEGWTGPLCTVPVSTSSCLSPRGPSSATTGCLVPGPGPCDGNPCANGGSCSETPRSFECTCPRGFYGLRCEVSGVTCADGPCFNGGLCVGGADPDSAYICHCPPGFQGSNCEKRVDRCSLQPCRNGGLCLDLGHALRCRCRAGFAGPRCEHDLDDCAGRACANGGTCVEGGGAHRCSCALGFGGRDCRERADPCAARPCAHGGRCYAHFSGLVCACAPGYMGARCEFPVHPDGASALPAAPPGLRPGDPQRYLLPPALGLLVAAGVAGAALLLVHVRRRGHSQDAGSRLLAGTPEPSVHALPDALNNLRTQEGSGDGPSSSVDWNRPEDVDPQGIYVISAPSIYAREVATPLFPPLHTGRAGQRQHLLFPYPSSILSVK
Nature of the experiment: Affinity determination by Surface Plasmon Resonance (SPR), Biacore, 1:1 binding model. The note with it: biotinylated human DLL3 on streptavidin chip, 25° C.; NB = nonbinding. A digest of the protocol: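 SPR with biotinylated human DLL3 captured on a streptavidin chip, with a reference surface subtracted. Samples were injected at several concentrations at 100 μL/min in phosphate buffer with 137 mM NaCl, 2.7 mM KCl, 0.05% P20 and 2% DMSO. Kinetic and affinity constants came from a 1:1 binding fit.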

What is called Kd is the equilibrium constant for the complex coming apart. Regarding `CC(C)C[C@@H]1NC(=O)[C@H](Cc2c[nH]c3ccccc23)NC(=O)[C@@H](NC(=O)[C@H](CC(=O)O)NC(=O)[C@H](CO)NC(=O)CCCCCNC(=O)CN2CCN(CC(=O)O)CCN(CC(=O)O)CCN(CC(=O)O)CC2)CSSC[C@@H](C(=O)N2CCC[C@H]2C(=O)N[C@@H](Cc2ccccc2)C(=O)N[C@@H](CC(=O)O)C(=O)N[C@H](CCCCN)C(N)=O)NC(=O)[C@H](CC(N)=O)NC(=O)[C@H](Cc2c[nH]c3ccccc23)NC(=O)[C@H](CCC(N)=O)NC1=O` [compound 73, DOTA-Ahx-S-D-C(3)-W-L-Q-W-N-C(3)-P-F-D-(D-Lys)-NH2] ({DOTA-Ahx}-SDCWLQWNCPFD[dK]-NH2; disulfide 3-9), the Kd was > 0.1 µM.
Next, `CC(=O)NCCCCCC(=O)N[C@@H](CO)C(=O)N[C@@H](CC(=O)O)C(=O)N[C@H]1CSSC[C@@H](C(=O)N2CCC[C@H]2C(=O)N[C@@H](Cc2ccccc2)C(=O)N[C@@H](CC(=O)O)C(=O)N[C@H](CCCCNC(=O)CN2CCN(CC(=O)O)CCN(CC(=O)O)CCN(CC(=O)O)CC2)C(N)=O)NC(=O)[C@H](CC(N)=O)NC(=O)[C@H](Cc2c[nH]c3ccccc23)NC(=O)[C@H](CCC(N)=O)NC(=O)[C@H](CC(C)C)NC(=O)[C@H](Cc2c[nH]c3ccccc23)NC1=O` [compound 74, Ac-Ahx-S-D-C(3)-W-L-Q-W-N-C(3)-P-F-D-D-Lys(DOTA)-CONH2] (Ac-[Ahx]SDCWLQWNCPFD[dK](DOTA)-NH2; disulfide 4-10): 0.009 µM; `CC(=O)N[C@H](C(=O)N[C@@H](CO)C(=O)N[C@@H](CC(=O)O)C(=O)N[C@H]1CSSC[C@@H](C(=O)N2CCC[C@H]2C(=O)N[C@@H](Cc2ccccc2)C(=O)N[C@@H](CC(=O)O)C(=O)N[C@H](CCCCNC(=O)CN2CCN(CC(=O)O)CCN(CC(=O)O)CCN(CC(=O)O)CC2)C(N)=O)NC(=O)[C@H](CC(N)=O)NC(=O)[C@H](Cc2c[nH]c3ccccc23)NC(=O)[C@H](CCC(N)=O)NC(=O)[C@H](CC(C)C)NC(=O)[C@H](Cc2c[nH]c3ccccc23)NC1=O)C(C)(C)C` [compound 76, Ac-tBuGly-S-D-C(3)-W-L-Q-W-N-C(3)-P-F-D-D-Lys(DOTA)-CONH2] (Ac-[Tle]SDCWLQWNCPFD[dK](DOTA)-NH2; disulfide 4-10): 0.012 µM; `CC(=O)N[C@@H](CO)C(=O)N[C@@H](CO)C(=O)N[C@@H](CC(=O)O)C(=O)N[C@H]1CSSC[C@@H](C(=O)N2CCC[C@H]2C(=O)N[C@@H](Cc2ccccc2)C(=O)N[C@@H](CC(=O)O)C(=O)N[C@H](CCCCNC(=O)CN2CCN(CC(=O)O)CCN(CC(=O)O)CCN(CC(=O)O)CC2)C(N)=O)NC(=O)[C@H](CC(N)=O)NC(=O)[C@H](Cc2c[nH]c3ccccc23)NC(=O)[C@H](CCC(N)=O)NC(=O)[C@H](CC(C)C)NC(=O)[C@H](Cc2c[nH]c3ccccc23)NC1=O` [compound 78, Ac-Ser-S-D-C(3)-W-L-Q-W-N-C(3)-P-F-D-D-Lys(DOTA)-CONH2] (Ac-SSDCWLQWNCPFD[dK](DOTA)-NH2; disulfide 4-10): 0.016 µM.
Next, `CCCC[C@H](NC(C)=O)C(=O)N[C@@H](CO)C(=O)N[C@@H](CC(=O)O)C(=O)N[C@H]1CSSC[C@@H](C(=O)N2CCC[C@H]2C(=O)N[C@@H](Cc2ccccc2)C(=O)N[C@@H](CC(=O)O)C(=O)N[C@H](CCCCNC(=O)CN2CCN(CC(=O)O)CCN(CC(=O)O)CCN(CC(=O)O)CC2)C(N)=O)NC(=O)[C@H](CC(N)=O)NC(=O)[C@H](Cc2c[nH]c3ccccc23)NC(=O)[C@H](CCC(N)=O)NC(=O)[C@H](CC(C)C)NC(=O)[C@H](Cc2c[nH]c3ccccc23)NC1=O` [compound 79, Ac-Nle-S-D-C(3)-W-L-Q-W-N-C(3)-P-F-D-D-Lys(DOTA)-CONH2] (Ac-[Nle]SDCWLQWNCPFD[dK](DOTA)-NH2; disulfide 4-10): 0.009 µM.
Then `CC(=O)N[C@@H](Cc1ccccc1)C(=O)N[C@@H](CO)C(=O)N[C@@H](CC(=O)O)C(=O)N[C@H]1CSSC[C@@H](C(=O)N2CCC[C@H]2C(=O)N[C@@H](Cc2ccccc2)C(=O)N[C@@H](CC(=O)O)C(=O)N[C@H](CCCCNC(=O)CN2CCN(CC(=O)O)CCN(CC(=O)O)CCN(CC(=O)O)CC2)C(N)=O)NC(=O)[C@H](CC(N)=O)NC(=O)[C@H](Cc2c[nH]c3ccccc23)NC(=O)[C@H](CCC(N)=O)NC(=O)[C@H](CC(C)C)NC(=O)[C@H](Cc2c[nH]c3ccccc23)NC1=O` [compound 80, Ac-Phe-S-D-C(3)-W-L-Q-W-N-C(3)-P-F-D-D-Lys(DOTA)-CONH2] (Ac-FSDCWLQWNCPFD[dK](DOTA)-NH2; disulfide 4-10), with 0.01 µM; and `CC(=O)N[C@@H](CCC(=O)O)C(=O)N[C@@H](CO)C(=O)N[C@@H](CC(=O)O)C(=O)N[C@H]1CSSC[C@@H](C(=O)N2CCC[C@H]2C(=O)N[C@@H](Cc2ccccc2)C(=O)N[C@@H](CC(=O)O)C(=O)N[C@H](CCCCNC(=O)CN2CCN(CC(=O)O)CCN(CC(=O)O)CCN(CC(=O)O)CC2)C(N)=O)NC(=O)[C@H](CC(N)=O)NC(=O)[C@H](Cc2c[nH]c3ccccc23)NC(=O)[C@H](CCC(N)=O)NC(=O)[C@H](CC(C)C)NC(=O)[C@H](Cc2c[nH]c3ccccc23)NC1=O` [compound 81, Ac-Glu-S-D-C(3)-W-L-Q-W-N-C(3)-P-F-D-D-Lys(DOTA)-CONH2] (Ac-ESDCWLQWNCPFD[dK](DOTA)-NH2; disulfide 4-10), with 0.0123 µM; and `CC(=O)N[C@@H](CCCC[N+](C)(C)C)C(=O)N[C@@H](CO)C(=O)N[C@@H](CC(=O)O)C(=O)N[C@H]1CSSC[C@@H](C(=O)N2CCC[C@H]2C(=O)N[C@@H](Cc2ccccc2)C(=O)N[C@@H](CC(=O)O)C(=O)N[C@H](CCCCNC(=O)CN2CCN(CC(=O)O)CCN(CC(=O)O)CCN(CC(=O)O)CC2)C(N)=O)NC(=O)[C@H](CC(N)=O)NC(=O)[C@H](Cc2c[nH]c3ccccc23)NC(=O)[C@H](CCC(N)=O)NC(=O)[C@H](CC(C)C)NC(=O)[C@H](Cc2c[nH]c3ccccc23)NC1=O` [compound 85, Ac-Lys(Me)3-S-D-C(3)-W-L-Q-W-N-C(3)-P-F-D-D-Lys(DOTA)-CONH2] (Ac-[Lys(Me3)]SDCWLQWNCPFD[dK](DOTA)-NH2; disulfide 4-10), with 0.014 µM.
`CC(=O)N[C@@H](CO)C(=O)N[C@@H](CC(=O)O)C(=O)N[C@H]1CSSC[C@@H](C(=O)N2CCC[C@H]2C(=O)N[C@@H](Cc2ccccc2)C(=O)N[C@@H](CC(=O)O)C(=O)N[C@@H](CCCCNC(=O)CN2CCN(CC(=O)O)CCN(CC(=O)O)CCN(CC(=O)O)CC2)C(N)=O)NC(=O)[C@H](CC(N)=O)NC(=O)[C@H](Cc2c[nH]c3ccccc23)NC(=O)[C@H](CCC(N)=O)NC(=O)[C@H](CC(C)C)NC(=O)[C@H](Cc2c[nH]c3ccccc23)NC1=O` [compound 86, Ac-S-D-C(3)-W-L-Q-W-N-C(3)-P-F-D-[L-Lys(DOTA)]-NH2] (Ac-SDCWLQWNCPFDK(DOTA)-NH2; disulfide 3-9) yielded a Kd of 0.0123 µM.
Then `CC(C)C[C@@H]1NC(=O)[C@H](Cc2c[nH]c3ccccc23)NC(=O)[C@@H](NC(=O)[C@H](CC(=O)O)NC(=O)[C@H](CO)NC(=O)CCCCCNC(=O)CN2CCN(CC(=O)O)CCN(CC(=O)O)CCN(CC(=O)O)CC2)CSSC[C@@H](C(=O)N2CCC[C@H]2C(=O)N[C@@H](Cc2ccccc2)C(=O)N[C@@H](CC(=O)O)C(N)=O)NC(=O)[C@H](CC(N)=O)NC(=O)[C@H](Cc2c[nH]c3ccccc23)NC(=O)[C@H](CCC(N)=O)N(C)C1=O` [compound 93, DOTA-Ahx-S-D-C(3)-W-L-(NMe-Gln)-W-N-C(3)-P-F-D-CONH2] ({DOTA-Ahx}-SDCWL[NMeQ]WNCPFD-NH2; disulfide 3-9), with > 0.1 µM; and `CC(=O)N[C@H](C(=O)N[C@@H](CO)C(=O)N[C@@H](CC(=O)O)C(=O)N[C@H]1CSSC[C@@H](C(=O)N2CCC[C@@]2(C)C(=O)N[C@@H](Cc2ccccc2)C(=O)N[C@@H](CC(=O)O)C(=O)N[C@H](CCCCNC(=O)CN2CCN(CC(=O)O)CCN(CC(=O)O)CCN(CC(=O)O)CC2)C(N)=O)NC(=O)[C@H](CC(N)=O)NC(=O)[C@H](Cc2c[nH]c3ccccc23)NC(=O)[C@H](CCC(N)=O)NC(=O)[C@H](CC(C)C)NC(=O)[C@H](Cc2cccc3ccccc23)NC1=O)C1CCCCC1` [compound 95, Ac-(Chg)-S-D-C(3)-(1Nal)-L-Q-W-N-C(3)-(aMe-P)-F-D-D-Lys(DOTA)-CONH2] (Ac-[Chg]SDC[1Nal]LQWNC[αMeP]FD[dK](DOTA)-NH2; disulfide 4-10), with 0.00029 µM.
Then `CC(=O)N[C@H](C(=O)N[C@@H](CO)C(=O)N[C@@H](CC(=O)O)C(=O)N[C@H]1CSSC[C@@H](C(=O)N2CCC[C@H]2C(=O)N[C@@H](Cc2ccccc2)C(=O)N[C@@H](CC(=O)O)C(N)=O)NC(=O)[C@H](CC(N)=O)NC(=O)[C@H](Cc2c[nH]c3ccccc23)NC(=O)[C@H](CCC(N)=O)NC(=O)[C@H](CC(C)C)NC(=O)[C@H](CCCCNC(=O)CN2CCN(CC(=O)O)CCN(CC(=O)O)CCN(CC(=O)O)CC2)NC1=O)C1CCCCC1` [compound 97, Ac-(Chg)-S-D-C(3)-[L-Lys(DOTA)]-L-Q-W-N-C(3)-P-F-D-CONH2] (Ac-[Chg]SDCK(DOTA)LQWNCPFD-NH2; disulfide 4-10), with > 0.1 µM.
